Consider 1 compound from US6852327B1, “Composition attracting insects pertaining to the coleoptera family and use thereof in the control of plagues in palm-trees and related plants” (Instituto Nacional de Investigacion y Tecnologia Agraria y …, priority 1998, dated 2005).

For the experiment, the system named is Rhynchophorus palmarum. Put plainly: Field trapping study of Rhynchophorus palmarum control in palm tree groves (baited traps, 1 month, French Guiana). It is filed as in vivo. Conditions: second (last) Total capture column; period not printed separately (study dates March-May 1997); total insects in all traps with the same test substance. The source says: Study of Rhynchophorus palmarum Control in Palm Tree Groves
This experiment was designed to assess the control of Rhynchophorus palmarum control in ornamental, palm trees and in coconut palms according to the characteristics indicated hereunder.
Insect species against which the experiment was designed: Rhynchophorus palmarum, Coleoptera curculionidae, Rhynchophorinae.
Testing area: Cayenne—Remire Montjoly, French Guiana.
Plants: Ornamental palm tree groves and coconut palms.
Substances tested: • (a) Vegetal bait (sugar cane in 25 cm lengths cut lengthwise through the middle and fermented during 24 hours at 28° C., and Rhynchophorol (synthetic feromone) • (b) INIA 1 composition and Rhynchophorol. • (c) INIA 2 composition and Rhynchophorol. • (c) INIA 3 composition and Rhynchophorol. • (e) Reference specimen (only Rhynchophorol).
A randomly selected “double blind” test was repeated 4 times in traps installed over trash cans modified to include spreaders comprising a supporting agent capable of absorbing/adsorbing and releasing the compositions to be tested and designed to emit said compositions.
The vegetal bait, namely cut-up cane, was arranged in a bundle on the bottom of the trap can. Feromone (Rhynchophorol) was released from small hermetic plastic 200 μm envelopes loaded with 0.2 cm^3 of synthetic feromone spreading a minimum of 2 mg/day through pores in the trap. […]

`C/C=C/C(O)CC(C)C` (stereo not shown) [(e), Rhynchophorol] gave a Total capture of 3.
